In patent US20250230193A1, “CYCLIC COMPOUND HAVING SELECTIVE KRAS INHIBITORY EFFECT ON HRAS AND NRAS” (CHUGAI SEIYAKU KABUSHIKI KAISHA, priority 2022, published 2025):
Where a SMILES comes first, the peptide text is derived from it. Bridges are numbered along the chain shown (N, C = ends). [ ]: non-standard residue; d: D form. The star is where a group is joined. hPhe(3-Cl-4-CF3) = N[C@@H](CCc1ccc(C(F)(F)F)c(Cl)c1)C(=O)O; NPrPhe(4-CF3) = CCCN[C@@H](Cc1ccc(C(F)(F)F)cc1)C(=O)O; NMeGly(cPent) = CN[C@H](C(=O)O)C1CCCC1; Hyp = O=C(O)[C@@H]1C[C@@H](O)CN1; NMeD = CN[C@@H](CC(=O)O)C(=O)O; NMeL = CN[C@@H](CC(C)C)C(=O)O; Morpholide = C1CN(*)CCO1; Ac5c = NC1(C(=O)O)CCCC1; Sar = CNCC(=O)O

What was measured:
[1] = biological target: GDP-bound HRAS wild-type protein (Homo sapiens, UniProt P01112); assay: Binding to HRAS by surface plasmon resonance (SPR), Single Cycle Kinetics; details: SPR; for HRAS/KRAS (ratio of KD value with respect to HRAS to KD value with respect to KRAS): GDP-bound HRAS wild-type vs GDP-bound KRAS wild-type
Sequence of GDP-bound HRAS wild-type protein (P01112 whole entry): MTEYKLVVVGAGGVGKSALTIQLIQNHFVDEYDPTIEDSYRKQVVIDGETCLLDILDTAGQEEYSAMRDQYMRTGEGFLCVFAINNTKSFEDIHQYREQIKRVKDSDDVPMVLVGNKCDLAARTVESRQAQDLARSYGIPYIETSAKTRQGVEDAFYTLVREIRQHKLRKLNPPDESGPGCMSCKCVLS

[2] = biological target: GDP-bound NRAS wild-type protein (Homo sapiens, UniProt P01111); assay: Binding to NRAS by surface plasmon resonance (SPR), Single Cycle Kinetics; details: SPR; for NRAS/KRAS (ratio of KD value with respect to NRAS to KD value with respect to KRAS): GDP-bound NRAS wild-type vs GDP-bound KRAS wild-type
Sequence of GDP-bound NRAS wild-type protein (P01111 whole entry): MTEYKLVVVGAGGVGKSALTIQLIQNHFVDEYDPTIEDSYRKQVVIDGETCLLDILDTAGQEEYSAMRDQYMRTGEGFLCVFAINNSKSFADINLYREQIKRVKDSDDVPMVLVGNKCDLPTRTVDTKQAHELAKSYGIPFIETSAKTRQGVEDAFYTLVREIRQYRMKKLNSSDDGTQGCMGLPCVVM

Compound | HRAS/KRAS (ratio of KD value with respect to HRAS to KD value with respect to KRAS) [1] | NRAS/KRAS (ratio of KD value with respect to NRAS to KD value with respect to KRAS) [2] | HRAS/KRAS (ratio of KD value with respect to HRAS to KD value with respect to KRAS) ([1]; KD ratio) | NRAS/KRAS (ratio of KD value with respect to NRAS to KD value with respect to KRAS) ([2]; KD ratio) | other results
CCO[C@@H]1C[C@H]2C(=O)NC3(CC(C)(C)C3)C(=O)N(C)[C@@H](C(CC)CC)C(=O)N(C)[C@H](C(=O)N(C)C)CC(=O)N(C)[C@@H](CC)C(=O)N[C@@H]([C@@H](C)CC)C(=O)N(C)CC(=O)N(C)[C@H]3C/C=C\CCN(C3=O)[C@@H](Cc3ccc(C(F)(F)F)cc3)C(=O)N(C)CC(=O)N[C@@H](CCc3ccc(Cl)c(Cl)c3)C(=O)N2C1 [PP2179] | A (a compound having 10 or more and less than 20 is denoted as A) | AA (a compound having 20 or more is denoted as AA) | – | – | –
CCCN1C(=O)CN(C)C(=O)CN(C)C(=O)[C@H]([C@@H](C)CC)NC(=O)[C@H](CC(C)C)N(C)C(=O)C[C@@H](C(=O)N2CCOCC2)N(C)C(=O)[C@H](C2CCCC2)N(C)C(=O)C2(CCCC2)NC(=O)[C@@H]2C[C@@H](OCC)CN2C(=O)[C@H](CCc2ccc(C(F)(F)F)c(Cl)c2)NC(=O)CN(C)C(=O)[C@@H]1Cc1ccc(C(F)(F)F)cc1 [PP0233] ([NMeL]I[Sar][Sar][NPrPhe(4-CF3)][Sar][hPhe(3-Cl-4-CF3)][Hyp](Et)[Ac5c][NMeGly(cPent)][NMeD]-Morpholide; lactam N-11) | – | – | – | – | HRAS/KRAS (ratio of KD for GDP-bound HRAS wild-type to KD for KRAS) ([1]; KD ratio HRAS/KRAS): C (A compound having a KD ratio of 0.1 or more and less than 3 is denoted as C); NRAS/KRAS (ratio of KD for GDP-bound NRAS wild-type to KD for KRAS) ([2]; KD ratio NRAS/KRAS): B (a compound having 3 or more and less than 10 is denoted as B)
CCO[C@@H]1C[C@H]2C(=O)NC3(CCC3)C(=O)N(C)[C@@H](C3CCCC3)C(=O)N(C)[C@H](C(=O)N(C)C)CC(=O)N(C)[C@@H](CC)C(=O)N[C@@H]([C@@H](C)CC)C(=O)N(C)CC(=O)N(C)[C@H]3CCCCCN(C3=O)[C@@H](Cc3ccc(F)cc3Cl)C(=O)N(C)CC(=O)N[C@@H](CCc3cc(F)c(C(F)(F)F)c(F)c3)C(=O)N2C1 [PP0908] | – | – | B (a compound having 3 or more and less than 10 is denoted as B) | B (a compound having 3 or more and less than 10 is denoted as B) | –
CCCN(C)C(=O)[C@@H]1CC(=O)N(C)[C@@H](C2CC2)C(=O)N[C@@H]([C@@H](C)CC)C(=O)N(C)CC(=O)N(C)[C@H]2C/C=C\CCN(C2=O)[C@@H](Cc2ccc(C(F)(F)F)cc2)C(=O)N(C)CC(=O)N[C@@H](CCc2cc(F)c(C(F)(F)F)c(F)c2)C(=O)N2C[C@H](OCC)C[C@H]2C(=O)NC2(CC(C)(C)C2)C(=O)N(C)[C@@H](C2CCCC2)C(=O)N1C [PP2037] | A (a compound having 10 or more and less than 20 is denoted as A) | A (a compound having 10 or more and less than 20 is denoted as A) | – | – | –
CCOC[C@H]1C(=O)N[C@@H]([C@@H](C)CC)C(=O)N(C)CC(=O)N(C)[C@H]2C/C=C\CCN(C2=O)[C@@H](CC2CCC(F)(F)CC2)C(=O)N(C)CC(=O)N[C@@H](CCc2ccc(C(F)(F)F)c(OC)c2)C(=O)N2C[C@H](OCC)C[C@H]2C(=O)N(C)C2(CCC2)C(=O)N(C)[C@@H](C(CC)CC)C(=O)N(C)[C@H](C(=O)N(C)C)CC(=O)N1C [PP2347] | A (a compound having 10 or more and less than 20 is denoted as A) | A (a compound having 10 or more and less than 20 is denoted as A) | – | – | –
CC[C@H](C)[C@@H]1NC(=O)[C@H](CC)N(C)C(=O)C[C@@H](C(=O)N(C)C)N(C)C(=O)[C@H](C2CCCC2)N(C)C(=O)C2(CCC2)NC(=O)[C@@H]2CCN2C(=O)[C@H](CCc2cc(F)c(C(F)(F)F)c(F)c2)NC(=O)CN(C)C(=O)[C@H](Cc2ccc(C(F)(F)F)cc2)N2CC/C=C\C[C@@H](C2=O)N(C)C(=O)CN(C)C1=O [PP1139] | – | – | A (a compound having 10 or more and less than 20 is denoted as A) | A (a compound having 10 or more and less than 20 is denoted as A) | –
CC[C@H](C)[C@@H]1NC(=O)[C@H](CC(C)C)N(C)C(=O)C[C@@H](C(=O)N2CCOCC2)N(C)C(=O)[C@H](C2CCCC2)N(C)C(=O)C2(CCC2)NC(=O)[C@@H]2[C@@H](OCC(F)F)CCN2C(=O)[C@H](CCc2cc(F)c(C(F)(F)F)c(F)c2)NC(=O)CN(C)C(=O)[C@H](Cc2ccc(C(F)(F)F)cc2)N2CCCCC[C@@H](C2=O)N(C)C(=O)CN(C)C1=O [PP1012] | – | – | B (a compound having 3 or more and less than 10 is denoted as B) | A (a compound having 10 or more and less than 20 is denoted as A) | –
